Data on eight substances can be found in article PMC6136576, “Ubiquitin-Mimicking Peptides Transfer Differentiates by E1 and E2 Enzymes” (BioMed Research International, 2018).

One assay deals with T1, Ube1 (Homo sapiens, UniProt P22314).
T1 sequence (P22314 1-1058): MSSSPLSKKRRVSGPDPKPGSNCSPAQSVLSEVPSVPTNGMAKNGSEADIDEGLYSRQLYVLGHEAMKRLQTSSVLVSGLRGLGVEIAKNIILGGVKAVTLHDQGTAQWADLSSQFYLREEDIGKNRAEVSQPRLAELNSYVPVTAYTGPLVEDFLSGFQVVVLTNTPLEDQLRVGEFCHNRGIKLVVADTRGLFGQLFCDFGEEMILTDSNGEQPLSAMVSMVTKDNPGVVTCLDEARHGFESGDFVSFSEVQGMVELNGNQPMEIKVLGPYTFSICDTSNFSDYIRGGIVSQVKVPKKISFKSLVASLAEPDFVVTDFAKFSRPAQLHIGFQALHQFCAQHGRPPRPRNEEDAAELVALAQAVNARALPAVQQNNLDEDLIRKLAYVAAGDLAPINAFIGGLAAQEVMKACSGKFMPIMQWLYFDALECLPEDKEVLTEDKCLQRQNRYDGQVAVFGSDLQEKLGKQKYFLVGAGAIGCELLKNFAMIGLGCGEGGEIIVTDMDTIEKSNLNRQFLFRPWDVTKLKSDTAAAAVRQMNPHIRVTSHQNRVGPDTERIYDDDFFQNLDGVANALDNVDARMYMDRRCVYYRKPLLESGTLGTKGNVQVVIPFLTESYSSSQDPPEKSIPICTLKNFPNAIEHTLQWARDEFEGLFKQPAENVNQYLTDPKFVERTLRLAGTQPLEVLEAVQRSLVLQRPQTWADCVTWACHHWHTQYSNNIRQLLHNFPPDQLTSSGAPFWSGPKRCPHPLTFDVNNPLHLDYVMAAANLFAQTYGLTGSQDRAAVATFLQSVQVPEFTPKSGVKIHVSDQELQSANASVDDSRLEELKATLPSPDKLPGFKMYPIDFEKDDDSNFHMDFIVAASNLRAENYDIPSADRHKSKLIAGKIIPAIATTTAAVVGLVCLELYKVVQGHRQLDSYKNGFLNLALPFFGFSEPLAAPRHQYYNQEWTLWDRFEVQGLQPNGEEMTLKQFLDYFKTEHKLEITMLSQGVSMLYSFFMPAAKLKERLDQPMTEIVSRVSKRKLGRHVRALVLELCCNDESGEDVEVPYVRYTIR
Briefly: ATP-PPi exchange assay of Ube1 activation. It is filed as biochemical. The settings on record: for kcat/Km / Km / kcat: ATP-PPi exchange catalyzed by Ube1, 0.05 uM Ube1, peptides 10-1000 uM, n=3; for kcat/Km / kcat: pH7.5, room temperature; for reactivity of free 7mer peptides with Ube1 (ATP-PPi exchange rate): free short peptides, Figure 1, n=3; for Km: 50 mM Tris-Cl pH7.5, 10 mM MgCl2, 1 mM ATP, 1 mM [32P]pyrophosphate, room temperature; for Km / kcat: Michaelis-Menten fit. The method, then:
Initial velocity of Ube1-activated peptides either in the free state or on different frames was followed by the ATP-PPi exchange assay. 50 uL reactions were set up containing varying concentrations of peptides, 0.05 uM Ube1, 50 mM Tris-Cl, pH7.5, 10 mM MgCl2, and 1 mM ATP. The reactions were initiated by adding of 1 mM [^32P]pyrophosphate (4.6 Ci/mol). The reactions were incubated at room temperature and quenched at various time points by adding of 0.5 mL of a suspension of activated charcoal (1.6 % (w/v) charcoal, 0.1 M tetrasodium pyrophosphate, and 0.35 M perchloric acid) to each of the reactions. The charcoal was pelleted by centrifugation and each charcoal pellet was washed three times with 1 ml 2 % trichloroacetic acid. Finally the charcoal pellet was resuspended in 0.5 ml water and the suspension was added to 3.5 mL Ultima Gold LSC-cocktail (PerkinElmer). The radioactivity bound to charcoal was determined by liquid scintillation counting. To measure the kinetics of the peptides activation by Ube1, initial velocities of ATP-PPi exchange were determined with concentrations of peptides varying from 10 uM to 1000 uM. The kinetic data were fitted to the Michaelis-Menten equation with the data analysis software Origin.

The subject of a further assay is E2 and E3. Particulars: cited from earlier work.

The Km is the concentration of substrate that gives half-maximal velocity. Broadly, the kcat is the maximal rate divided by the concentration of active sites.

“Also recorded” adds a separate entry of the source. Marks after values point to notes of the source that are not given here.

As for VLRLRGG [P1, reference compound], on Ube1, the kcat/Km was determined as 5.24e-05 µM/min and the “reactivity of free 7mer peptides with Ube1 (ATP-PPi exchange rate)” value is “could not be conjugated to Ube1”.
Regarding “VQRYWGG [P3, previously reported short peptide VQRYWGG, positive control, reference compound]”, on Ube1, the Km was determined as 476 ± 163 µM, the kcat stood at 6.68 ± 0.77 min⁻¹, the kcat/Km amounted to 0.014 µM/min and the “reactivity of free 7mer peptides with Ube1 (ATP-PPi exchange rate)” value is listed as “showed significant activity with Ube1”. Moreover, in the assay on E2 and E3, the “transfer of free peptides to E2 and E3” value was “could be transferred to E2 and E3”.
On to “ALKERGG [C3, heptamer peptide ALKERGG from Human splicing factor 3A subunit 1 isoform 1]”, for which the “reactivity of free 7mer peptides with Ube1 (ATP-PPi exchange rate)” value on Ube1 is “neither C8, containing Arg but only one Gly, nor C3, which possesses the C-terminal Gly-Gly but with a homologous replacement of Arg to Lys, showed any reactivity toward Ube1”.
For the substance “AGRMLGG [C7, heptamer peptide AGRMLGG from Ubiquitin-like protein fubi and ribosomal protein S30 precursor]”, on Ube1, the Km amounted to 543 ± 122 µM; the kcat is 5.54±1.37^c min^−1; the kcat/Km is 1.01 x10^−2^c μM min^−1; the “reactivity of free 7mer peptides with Ube1 (ATP-PPi exchange rate)” value is “displayed affinity with Ube1 with a similar level of efficiency as P3 and P4; also recorded: highest activity of the three peptides identified in this study”.
Take “VLRQLGG [C2, heptamer peptide VLRQLGG from Drosophila homologue of C1orf55]”: at Ube1, the Km was determined as 611 ± 23.1 µM; the kcat was 3.73±0.87^b min^−1; the kcat/Km was 6.10 x10^−3^b μM min^−1; the “reactivity of free 7mer peptides with Ube1 (ATP-PPi exchange rate)” value is “displayed affinity with Ube1 with a similar level of efficiency as P3 and P4”.
For the substance “EPRLCGG [C1, heptamer peptide EPRLCGG from the motif of Human C1orf55]”, on Ube1, the Km was 651 ± 49.3 µM; the turnover number (kcat) was 2.29±0.59^a min^−1; the kcat/Km is reported as 3.52 x10^−3^a μM min^−1; the “reactivity of free 7mer peptides with Ube1 (ATP-PPi exchange rate)” value was “displayed affinity with Ube1 with a similar level of efficiency as P3 and P4”.
With “IPRDRVG [C8, heptamer peptide IPRDRVG from Ubiquitin-fold modifier 1 (Homo sapiens)]”, the “reactivity of free 7mer peptides with Ube1 (ATP-PPi exchange rate)” value at Ube1 was “neither C8, containing Arg but only one Gly, nor C3, which possesses the C-terminal Gly-Gly but with a homologous replacement of Arg to Lys, showed any reactivity toward Ube1”.
As for “VYRFYGG [P4, previously reported short peptide VYRFYGG, positive control, reference compound]”, at Ube1, the Km is 251 ± 55.6 µM, the kcat was 13.98 ± 2.08 min⁻¹, the kcat/Km is 0.0557 µM/min and the “reactivity of free 7mer peptides with Ube1 (ATP-PPi exchange rate)” value is listed as “showed significant activity with Ube1”. Besides, the “transfer of free peptides to E2 and E3” value in the assay on E2 and E3 is “could be transferred to E2 and E3”.
